Experimental data published in US20060135501A1, “Piperidinyl-thiazole carboxylic acid derivatives as angiogenesis inhibitors” (priority 2002, published 2006).
“And” between values parts separate entries of the source, which are not always exact repeats. Equal values may be shown once.

Experiments:
rhVEGF165-biotin = target: T1, rhVEGF165-biotin (Homo sapiens, UniProt P15692); experiment: VEGF-Binding ELISA (dose-response)
T1 sequence (P15692 27-191 isoform P15692-4): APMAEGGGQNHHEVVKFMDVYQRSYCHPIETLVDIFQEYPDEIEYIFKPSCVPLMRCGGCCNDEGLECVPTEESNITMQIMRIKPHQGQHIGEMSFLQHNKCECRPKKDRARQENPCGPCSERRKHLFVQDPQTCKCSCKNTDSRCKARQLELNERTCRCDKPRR
Procedure: The potency of test substances as a VEGF-neutralising moiety is measured in an ELISA format. This assay measures the solution-phase interaction between rhVEGF165-biotin and test sample. Unbound VEGF165-biotin is then immobilised on a solid-phase anti-hVEGF antibody (R&D systems MAB293). The biotin signal is detected with streptavidin-alkaline phosphatase, which gives a colorimetric signal when incubated with p-nitrophenyl phosphate. Plates are read in a spectrophotometer at 405 nm.
(§1) Any test compound that binds to VEGF165-biotin and prevents it from binding to the antibody will lower the color signal and be recognized as a “hit”. Hits were defined as compounds that show>60% inhibition.
VEGF165-biotin+assay buffer ? 0% inhibition
Soluble VEGF receptor (sflt @ 4 nM) ? 70% inhibition
(§2) The primary screening of all library compounds was done at a compound concentration of 50 μM, followed by measuring dose-response effects of “hits” between 0.05 and 500 μM for the calculation of IC50 values.
The compounds were dissolved in DMSO and it was shown that the solvent has no effect on the assay at this concentration.

[1] = test system: human umbilical vein endothelial cells (HUVEC); experiment: HUVEC proliferation assay co-stimulated with rhVEGF; assay type: cell-based
Procedure: The HUVEC assay measures the potency of test substances to inhibit in vitro proliferation of human umbilical vein endothelial cells (HUVEC) when co-stimulated with recombinant human vascular endothelial growth factor (rhVEGF).
HUVEC are grown under defined conditions (EGM-2 medium, 37° C., 5% CO2 and 95% humidity). They are seeded into 48-well plates using EBM medium with only 1% serum and incubated for 24 h. This is to ensure that cells are not stimulated before treatment with VEGF and test compound.
Test compounds are diluted in medium to concentrations between 0.05 and 50 μM and dosed together with VEGF165 at 12 ng/ml. This VEGF concentration was determined in a VEGF-dose-response curve to be just sub-optimal for maximum cell proliferation. Cells are incubated for 48 h at above conditions and viable cell density is measured using a tetrazolium compound (MTS). Viable cells reduce MTS into a soluble formazan product, which has an absorbance maximum at 490 nm. The absorbance is directly proportional to cell density.
EBM+1% serum (no VEGF) ? Minimum or Blank
EBM+1% serum (12 ng/ml) ? Maximum

VEGF = target: T2, VEGF (Homo sapiens, UniProt P15692); experiment: Initial medium throughput ELISA assay for inhibition of VEGF (primary screening); assay type: binding; details: initial assessment, primary screening at compound concentration of 50 μM, repeats listed; for Inhibition (%): 50 µM
T2 sequence (P15692 27-191 isoform P15692-4): T1 sequence (P15692 27-191 isoform P15692-4)
Procedure: Initially the compounds were assayed for inhibition of VEGF in a medium throughput ELISA assay before detailed assessment in the HUVEC and VEGF binding assays in examples in 9 and 10. The data from this initial assessment is presented in table 5 in the column labelled “Inhibition %”.
as §1, §2

[2] = Table 6, first test (unmarked value)
[3] = Homo sapiens, HUVEC, Table 6, first test (unmarked value)
[4] = Homo sapiens, HUVEC, 48 h, Table 5, VEGF165 at 12 ng/ml, MTS, repeats listed
[5] = Table 5, VEGF165 at 12 ng/ml, 48 h, MTS, repeats listed

IC50 (rhVEGF165-biotin; Table 5, repeats listed) | inhibition at 50 µM (VEGF) | Structure (SMILES) | IC50 [1, 4] | further results
 |  | NC(=O)c1ccc(Cl)c(NC(=O)c2csc(C3CCN(C(=O)Cc4ccccc4Cl)CC3)n2)c1 [Compound 1633-00375] |  | IC50 (rhVEGF165-biotin; Table 6, **tested after re-synthesised, $solubility problems): 9 µM; IC50 (rhVEGF165-biotin; [2]): 5 µM; IC50 ([1]; Homo sapiens, HUVEC, Table 6, **tested after re-synthesised, $solubility problems): 17 µM; IC50 [1, 3]: 0.448 µM
173 µM |  | CC#CCOC(=O)N1CCC(c2nc(C(=O)Nc3cc(C(N)=O)ccc3OC)cs2)CC1 [Compound 1506-07095] |  | 
11 µM and 13.5 µM | 85% | COc1ccc(C(N)=O)cc1NC(=O)c1csc(C2CCN(C(=O)c3cc4ccccc4o3)CC2)n1 [Compound 1506-01284, N-[5-(aminocarbonyl)-2-methoxyphenyl]-2-[1-(1-benzofuran-2-ylcarbonyl)-4-piperidinyl]-1,3-thiazole-4-carboxamide] | 10.1 µM | IC50 [1, 5]: 12.6 µM
6.6 µM | 93% | COc1ccc(C(N)=O)cc1NC(=O)c1csc(C2CCN(C(=O)c3ccccc3C(F)(F)F)CC2)n1 [Compound 1506-03388] | 23 µM | Inhibition (%) (VEGF): 87% and 90%
4 µM | 88% | COc1ccc(C(N)=O)cc1NC(=O)c1csc(C2CCN(C(=O)C#Cc3ccccc3)CC2)n1 [Compound 1506-01461, N-[5-(aminocarbonyl)-2-methoxyphenyl]-2-[1-(3-phenyl-2-propynoyl)-4-piperidinyl]-1,3-thiazole-4-carboxamide] | 11 µM | Inhibition (%) (VEGF): 75% and 83%
105 µM |  | COc1ccc(C(N)=O)cc1NC(=O)c1csc(C2CCN(C(=O)c3c(F)cccc3Cl)CC2)n1 [Compound 1506-03039] | 4.2 µM | 
54 µM and 126 µM | 91% | COc1ccc(C(N)=O)cc1NC(=O)c1csc(C2CCN(C(=O)c3cnn(-c4ccccc4)c3)CC2)n1 [Compound 1506-08772] | 25 µM | 
4.5 µM | 77% | COc1ccc(C(N)=O)cc1NC(=O)c1csc(C2CCN(C(=O)COc3ccc(C)c(C)c3)CC2)n1 [Compound 1506-03914, N-[5-(aminocarbonyl)-2-methoxyphenyl]-2-{1-[(3,4-dimethylphenoxy)acetyl]-4-piperidinyl}-1,3-thiazole-4-carboxamide] | 17 µM | Inhibition (%) (VEGF): 70% and 81%
16.7 µM |  | COc1ccc(C(N)=O)cc1NC(=O)c1csc(C2CCN(C(=O)Cc3ccc(F)cc3)CC2)n1 [Compound 1506-01112] | 26 µM | 
128 µM |  | COCCOCCOCC(=O)N1CCC(c2nc(C(=O)Nc3cc(C(N)=O)ccc3OC)cs2)CC1 [Compound 1506-02159] |  | 
29 µM |  | COc1ccc(C(N)=O)cc1NC(=O)c1csc(C2CCN(C(=O)Cc3c[nH]c4ccccc34)CC2)n1 [Compound 1506-00935] |  | 
4.4 µM and 5 µM | 88% | COc1ccc(C(N)=O)cc1NC(=O)c1csc(C2CCN(C(=O)c3nnc4cc(C)nn4c3C)CC2)n1 [Compound 1506-00581, N-[5-(aminocarbonyl)-2-methoxyphenyl]-2-{1-[(4,7-dimethylpyrazolo[5,1-c][1,2,4]triazin-3-yl)carbonyl]-4-piperidinyl}-1,3-thiazole-4-carboxamide] | 30 µM | IC50 [1, 5]: 31 µM
16 µM and 15.5 µM |  | COc1ccc(C(N)=O)cc1NC(=O)c1csc(C2CCN(C(=O)c3ccc(OC(C)C)cc3)CC2)n1 [Compound 1506-04091] |  | 
 | 60% | COc1ccc(C(N)=O)cc1NC(=O)c1csc(C2CCN(C(=O)Cc3ccccc3Cl)CC2)n1 [Compound 1506-03737, N-[5-(aminocarbonyl)-2-methoxyphenyl]-2-{1-[(2-chlorophenyl)acetyl]-4-piperidinyl}-1,3-thiazole-4-carboxamide] | 9 µM | Inhibition (%) (VEGF): 70% and 74%
142 µM |  | COc1ccc(C(N)=O)cc1NC(=O)c1csc(C2CCN(C(=O)NCCC3=CCCCC3)CC2)n1 [Compound 1506-07554] | 35 µM | 
 |  | NC(=O)c1ccc(Cl)c(NC(=O)c2csc(C3CCN(C(=O)CCc4ccco4)CC3)n2)c1 [Compound 1633-00377] |  | IC50 (rhVEGF165-biotin; [2]): 5 µM; IC50 [1, 3]: 0.222 µM
14.8 µM | 52% | COc1ccc(C(N)=O)cc1NC(=O)c1csc(C2CCN(C(=O)N3CCN(c4ccccn4)CC3)CC2)n1 [Compound 1506-08218, N-[5-(aminocarbonyl)-2-methoxyphenyl]-2-(1-{[4-(2-pyridinyl)-1-piperazinyl]carbonyl}-4-piperidinyl)-1,3-thiazole-4-carboxamide] | 15.4 µM | Inhibition (%) (VEGF): 60% and 62%
7.3 µM and 1.5 µM | 88% | COc1ccc(C(N)=O)cc1NC(=O)c1csc(C2CCN(C(=S)Nc3ccc(N(C)C)cc3)CC2)n1 [Compound 1506-06813, N-[5-(aminocarbonyl)-2-methoxyphenyl]-2-[1-({[4-(dimethylamino)phenyl]amino}carbonothioyl)-4-piperidinyl]-1,3-thiazole-4-carboxamide] | 9.7 µM | IC50 [1, 5]: 8.2 µM
153 µM |  | COc1ccc(C(N)=O)cc1NC(=O)c1csc(C2CCN(C(=O)c3c(-c4ccccc4)noc3C)CC2)n1 [Compound 1506-00404] | 10.4 µM | 
 |  | C=CCCOc1ccc(C(=O)N2CCC(c3nc(C(=O)Nc4cc(C(N)=O)ccc4Cl)cs3)CC2)cc1 [Compound 1633-00884] |  | IC50 (rhVEGF165-biotin; [2]): 30 µM; IC50 [1, 3]: 0.649 µM
 |  | NC(=O)Cc1ccc(Cl)c(NC(=O)c2csc(C3CCN(C(=O)CCc4ccco4)CC3)n2)c1 [Compound 1633-01861] |  | IC50 (rhVEGF165-biotin; [2]): 13 µM; IC50 [1, 3]: 0.803 µM
6.5 µM |  | C=CCSc1ncccc1C(=O)N1CCC(c2nc(C(=O)Nc3cc(C(N)=O)ccc3OC)cs2)CC1 [Compound 1506-02331, 2-(1-{[2-(allylsulfanyl)-3-pyridinyl]carbonyl}-4-piperidinyl)-N-[5-(aminocarbonyl)-2-methoxyphenyl]-1,3-thiazole-4-carboxamide] | 22.8 µM | Inhibition (%) (VEGF): 43% and 73% and 79%
136 µM |  | COc1ccc(C(N)=O)cc1NC(=O)c1csc(C2CCN(C(=O)c3cc(OC)c4ccccc4c3)CC2)n1 [Compound 1506-01810] | 5.6 µM | 
132 µM |  | COc1ccc(C(N)=O)cc1NC(=O)c1csc(C2CCN(C(=O)c3ccc(OC)c(OC)c3OC)CC2)n1 [Compound 1506-03211] |  | 
3.6 µM |  | COc1ccc(C(=O)N2CCC(c3nc(C(=O)Nc4cc(C(N)=O)ccc4OC)cs3)CC2)cc1 [Compound 1506-03560] | 16.4 µM | 
11 µM |  | COc1ccc(C(N)=O)cc1NC(=O)c1csc(C2CCN(C(=O)Cc3ccc(SC)cc3)CC2)n1 [Compound 1506-08674] |  | 

Structure (SMILES) | IC50 (rhVEGF165-biotin; Table 5, repeats listed) | inhibition at 50 µM (VEGF) | IC50 [1, 4] | further results
COc1ccc(C(N)=O)cc1NC(=O)c1csc(C2CCN(C(=O)C3C(C)(C)C3(C)C)CC2)n1 [Compound 1506-01638] | 71 µM and > 100 µM | 89% | 5.4 µM | IC50 [1, 5]: 6 µM
